{"source": "patent US8614216B2", "key": {"[1]": {"test": "Solid state chemical stability, HPLC analysis", "format": "physicochemical", "conditions": "open flask", "from_the_text": "(§1) Samples were pulled at pre-determined time-points and analyzed for chemical stability."}, "[2]": {"test": "Moisture induced weight change in lactate salts", "format": "physicochemical", "conditions": "55% RH; listed as Lactate-trial 3"}, "[3]": {"test": "Dynamic vapor sorption (DVS) hygroscopicity experiment", "format": "physicochemical", "procedure": "All DVS measurements were carried out at 2.5% relative humidity change per hour."}, "[4]": {"test": "physchem", "conditions": "23 °C, water, thermodynamic from solid"}, "[5]": {"test": "Solution state chemical stability, HPLC analysis", "format": "physicochemical", "conditions": "sealed vial", "from_the_text": "as §1"}, "[6]": {"test": "Compaction studies (Carver Press, tablet hardness tester)", "format": "physicochemical", "conditions": "200 mg at 5000 psi, 0.8 cm die", "procedure": "The resulting tensile strength and thickness of the compacts were measured using a VK 200 Tablet Hardness Tester and Mitutoyo thickness gauge."}, "[7]": {"test": "Physical stability of the amorphous form on storage"}}, "data": [{"smiles": "CN1CCN(c2ccc3nc(-c4c(N)c5c(F)cccc5[nH]c4=O)[nH]c3c2)CC1", "note": "[Bis-lactate]", "values": [{"measurement": "Area % at Time = 0", "setting": "[1]; 40° C./70% Relative humidity", "result": 98.99, "unit": "Area %"}, {"measurement": "Area % at Time = 6 weeks", "setting": "[1]; 40° C./70% Relative humidity", "result": 97.92, "unit": "Area %"}]}, {"smiles": "CC(O)C(=O)O.CN1CCN(c2ccc3nc(-c4c(N)c5c(F)cccc5[nH]c4=O)[nH]c3c2)CC1", "note": "[Form A]", "values": [{"measurement": "Moisture induced % weight change", "setting": "[2]", "result": 0.08, "unit": "%"}, {"measurement": "Hygroscopicity in DVS experiment", "setting": "[3]; below about 80% r.h., 2.5% relative humidity change per hour", "result": "not hygroscopic"}, {"measurement": "Water uptake in DVS experiment", "setting": "[3]; exposure to r.h. conditions above 90%", "result": "significant water uptake"}, {"measurement": "solubility", "setting": "[4]", "result": "> 400", "unit": "mg/mL"}, {"measurement": "Area % at Time = 0", "setting": "[1]; 30° C./60% Relative humidity", "result": 98.41, "unit": "Area %"}, {"measurement": "Area % at Time = 6 weeks", "setting": "[1]; 30° C./60% Relative humidity", "result": 99.04, "unit": "Area %"}, {"measurement": "Area % at Time = 0", "setting": "[1]; 40° C./70% Relative humidity", "result": 98.46, "unit": "Area %"}, {"measurement": "Area % at Time = 6 weeks", "setting": "[1]; 40° C./70% Relative humidity", "result": 98.55, "unit": "Area %"}, {"measurement": "Area % at Time = 0", "setting": "[5]; 5° C.", "result": 98.80, "unit": "Area %"}, {"measurement": "Area % at Time = 7 days", "setting": "[5]; 5° C.", "result": 98.60, "unit": "Area %"}, {"measurement": "Area % at Time = 0", "setting": "[5]; ambient temperature", "result": 98.80, "unit": "Area %"}, {"measurement": "Area % at Time = 7 days", "setting": "[5]; ambient temperature", "result": 98.71, "unit": "Area %"}, {"measurement": "Forms Compact", "setting": "[6]; listed as Lactate-trial 1", "result": "Yes"}, {"measurement": "Tensile strength of compact", "setting": "[6]; listed as Lactate-trial 1", "result": 13.8, "unit": "SC—Strong Cobb"}, {"measurement": "Thickness of compact", "setting": "[6]; listed as Lactate-trial 1", "result": 3.06, "unit": "mm"}, {"measurement": "Forms Compact", "setting": "[6]; listed as Lactate-trial 2", "result": "Yes"}, {"measurement": "Tensile strength of compact", "setting": "[6]; listed as Lactate-trial 2", "result": 17.9, "unit": "SC—Strong Cobb"}, {"measurement": "Thickness of compact", "setting": "[6]; listed as Lactate-trial 2", "result": 2.92, "unit": "mm"}, {"measurement": "Forms Compact", "setting": "[6]; listed as Lactate-trial 3", "result": "Yes"}, {"measurement": "Tensile strength of compact", "setting": "[6]; listed as Lactate-trial 3", "result": 16.1, "unit": "SC—Strong Cobb"}, {"measurement": "Thickness of compact", "setting": "[6]; listed as Lactate-trial 3", "result": 2.97, "unit": "mm"}, {"measurement": "Forms Compact", "setting": "[6]; listed as lactate salt", "result": "forms strong compacts without a tendency to cap or chip"}]}, {"smiles": "CN1CCN(c2ccc3nc(-c4c(N)c5c(F)cccc5[nH]c4=O)[nH]c3c2)CC1", "note": "[Free base]", "values": [{"measurement": "Area % at Time = 0", "setting": "[1]; 30° C./60% Relative humidity", "result": 97.38, "unit": "Area %"}, {"measurement": "Area % at Time = 6 weeks", "setting": "[1]; 30° C./60% Relative humidity", "result": 97.83, "unit": "Area %"}, {"measurement": "Area % at Time = 0", "setting": "[1]; 40° C./70% Relative humidity", "result": 97.77, "unit": "Area %"}, {"measurement": "Area % at Time = 6 weeks", "setting": "[1]; 40° C./70% Relative humidity", "result": 98.23, "unit": "Area %"}]}, {"smiles": "CC(O)C(=O)O.CN1CCN(c2ccc3nc(-c4c(N)c5c(F)cccc5[nH]c4=O)[nH]c3c2)CC1", "note": "[amorphous form]", "values": [{"measurement": "Time stable", "setting": "[7]; 75% relative humidity and 40° C.", "result": "more than 2 days"}, {"measurement": "Stability of the solid form", "setting": "[7]; ambient conditions", "result": "stable"}]}]}
